How the values were obtained:
Type in all cases: cell-based
test cells = test: screening test for teratogenic activity with cells cultured in amniotic fluid; conditions: tests on two teratogens in the mouse
Excerpt: According to my invention I provide a process for screening a compound for teratogenic activity comprising administering the compound being screened to a test animal, removing amniotic fluid from the test animal, using the amniotic fluid removed as part or all of a cell culture medium, and measuring the effect on cell properties of cells grown in the culture medium containing the amniotic fluid from the test animal as compared with the use of amniotic fluid from an otherwise identical control animal that has not had the compound being screened administered to it.
(1) Amniotic fluid is used as cell culture medium or as an additive to a standardised cell culture medium in order to test the substance as processed by the maternal organism. Amniotic fluids either from animals of diverse genotype or of selected genotypes, as required, are pooled. […]
(2) A standardised cell suspension is innoculated into cultures and grown during log phase in the medium containing amniotic fluid from a control or test series as described above. […] Lens epithelium has been used since I have published evidence that quantitative regulation of specific syntheses is of especial importance in this orgen and the assay system described in (3) below detects changes in mitotic rate, cell mass, and growth conditions, cell surface modification and genetically determined pathology. […]

lens epithelial cells [1] = test: protein profile (accumulated protein, stained isoelectric focussing gels) of lens epithelial cells grown in amniotic fluid from injected mice; conditions: diluted to 50% with culture medium; for changes in the protein profile (bands of stained gels): Coomassie Blue stained gels, densitometry
Description: Similar densitometry is made of the autoradiograph of the gels. Each analysis can be done on a culture grown from a cell suspension of as little as 1-4.5 × 10^5 cells, but can be scaled up or down as required.
(§1) Mice of numerous genotypes were taken from amongst all the more prolific strains available from the Institute of Animal Genetics Mouse House (Mouse News Letter, 1974). They were mated and the pregnancies dated by vaginal plug. They were injected once, subcutaneously, with a teratogen, between 12-15 days of gestation in order to obtain a large volume of clear amniotic fluid. 1-2 hours after the injection the mice were killed by cervical dislocation, the uteri removed and the amniotic fluid harvested under sterile conditions, passed through a Millex filter and stored at -20°C. Control amniotic fluids were obtained from uninjected mice of a similar range of genotypes and stages of gestation. Mice were injected with double the teratogenic doses used for 6-aminonicotinamide by Pinsky and Fraser (Biol. Neonat., 1,106-112 (1959)) and for sodium acetyl salicylate by Larsson and Erickson (Acta. Paed. Scand., 55, 569-576, )1976)), but the amniotic fluids were diluted to 50% with culture medium for use, thus giving a final concentration similar to that used by these authors. Five batches of pooled amniotic fluid of each kind were prepared in this way and tested in separate culture experiments.
Cultures of dissociated lens epithelial cells were prepared according to Okada, Eguchi and Takeichi (Dev. Growth Diffn., 13,323-326 (197l)), and plated at 4.5 × 10^5 cells per dish in 3.5 ml Earles MEM (Biocult) containing 6% foetal calf serum (Gibco). The medium was changed at 2 days, and after 4 days, when these cells were in log phase, the medium was replaced by 1 ml of medium and 1 ml of amniotic fluid. After two further days the cells were labelled for 4 to 5 hours with ^14 C mixed amino acids (Amersham) at 20 μCi/ml. The cultures were washed several times in Hanks solution, harvested with a miniature plastic scraper and taken up into a drop of 8M urea containing 10 mM β-mercaptoethanol. The drop was frozen and thawed three times to liberate the cell contents. When required, the living cells were examined with a Gilbert and Siebert inverted phase microscope.
Polyacrylamide gels containing ampholines according to Wrigley (Science Tools, 15, 17-23, (1968)) were modified to contain 6M urea, 10mM β-mercaptoethanol, and an ampholine mixture giving a gradient from pH 3 to 10, flattened in the region of 4.5 to 7.0. Such gels give especially high resolution for crystallins and are now routinely used in my laboratory. 20 μl of cell preparation was added to each gel which was electrofocussed overnight according to Wrigley (loc. cit.). […]

lens epithelial cells [2] = test: morphology of lens epithelial cells grown in amniotic fluid from injected mice; conditions: amniotic fluid from mice injected once s.c. at 12-15 days gestation, harvested 1-2 h after; diluted to 50% with culture medium; two days' culture
Description: as §1, with “experiments. […]” for “experiments.”

| Compound | discrimination of treated cells from control cells (test cells) | other quantitative changes in the protein profile (lens epithelial cells [1]) | changes in the protein profile (bands of stained gels) (lens epithelial cells [1]) | cell outline / morphology (lens epithelial cells [2]) |
| --- | --- | --- | --- | --- |
| NC(=O)c1ccc(N)nc1 [6-aminonicotinamide] | distinguish reliably and specifically between the cells treated by each of these teratogens, and control cells | some other, less striking quantitative changes were also recorded | one band being missing and one exaggerated | modified cell outline |
| CC(=O)Oc1ccccc1C(=O)O [sodium acetyl salicylate] | distinguish reliably and specifically between the cells treated by each of these teratogens, and control cells | Other quantitative changes were also observed | lacking in the band which was enhanced by 6-aminonicotinamide treatment | normal in morphology |

From patent US4129643A, “Method for rapid screening of teratogenic agents” (priority 1976, dated 1978)
